Results published in patent US20260258032A1, “TYROSINE KINASE 2 INHIBITORS AND USES THEREOF” (BIOGEN MA INC., priority 2022, published 2026).
Counter-ions that a name gives are not always drawn.

test system: Tyk2 kinase activity on STAT4; test: pSTAT4 cell assay (MSD, NK92 cells); format: cell-based; details: compounds 1 hr, stimulated 15 minutes
Experimental: The inhibitory potency of compounds of the disclosure against the Tyk2 kinase activity on STAT4 was evaluated using an MSD-platform plate-based assay format. NK92 cells natively expressing STAT4 and Tyk2 were serum-starved to reduce background phosphorylation levels, then cells were treated compounds for 1 hr with a 10-point four-fold dilution series starting at 10 μM. Cells were then stimulated with 30 ng/mL IL2 for 15 minutes. Cells were lysed and […] levels were quantitated using an MSD plate-based assay with anti-STAT4 antibodies. The data were normalized and the percent activity versus log concentration of compound were fitted with a 4-parameter logistic model to generate to generate IC50 curves.

| Structure (SMILES) | IC50 |
| --- | --- |
| CO[C@H]1C[C@H](Oc2cc(N3CC4(CC4)c4cnc(NC(C)=O)cc43)nc(C(C)(F)F)c2)C1 [Example 92, N-(1′-(6-(1,1-difluoroethyl)-4-((1r,3r)-3-methoxycyclobutoxy)pyridin-2-yl)-1′,2′-dihydrospiro[cyclopropane-1,3′-pyrrolo[3,2-c]pyridin]-6′-yl)acetamide] | 10 to 100 nM |
| COC1(c2cc(C)cc(N3CC4(CC4)c4cnc(NC(C)=O)cc43)n2)CCOC1 (centres unmarked) [Example 96, N-(1′-(6-(3-methoxytetrahydrofuran-3-yl)-4-methylpyridin-2-yl)-1′,2′-dihydrospiro[cyclopropane-1,3′-pyrrolo[3,2-c]pyridin]-6′-yl)acetamide] | 10 to 100 nM |
| CC(=O)Nc1cc2c(cn1)C1(CC1)CN2c1cc(C)nc(-c2ccccc2)n1 [Example 105, N-(1′-(6-methyl-2-phenylpyrimidin-4-yl)-1′,2′-dihydrospiro[cyclopropane-1,3′-pyrrolo[3,2-c]pyridin]-6′-yl)acetamide] | ≥ 1000 nM |
| CC(=O)Nc1cc2c(cn1)C1(CC1)CN2c1cc(C)nc(-c2cccnc2)n1 [Example 106, N-(1′-(6-methyl-2-(pyridin-3-yl)pyrimidin-4-yl)-1′,2′-dihydrospiro[cyclopropane-1,3′-pyrrolo[3,2-c]pyridin]-6′-yl)acetamide] | ≥ 1000 nM |
| CC(=O)Nc1cc2c(cn1)C1(CC1)CN2c1cc(C)nc(-c2ccncc2)n1 [Example 107, N-(1′-(6-methyl-2-(pyridin-4-yl)pyrimidin-4-yl)-1′,2′-dihydrospiro[cyclopropane-1,3′-pyrrolo[3,2-c]pyridin]-6′-yl)acetamide] | ≥ 1000 nM |
| CC(=O)Nc1cc2c(cn1)C1(CC1)CN2c1cc(C)nc(-c2ncccn2)n1 [Example 108, N-(1′-(6-methyl-[2,2′-bipyrimidin]-4-yl)-1′,2′-dihydrospiro[cyclopropane-1,3′-pyrrolo[3,2-c]pyridin]-6′-yl)acetamide] | ≥ 1000 nM |
| CC(=O)Nc1cc2c(cn1)C1(CC1)CN2c1cc(C)nc(-c2coc(C)n2)n1 [Example 109, N-(1′-(6-methyl-2-(2-methyloxazol-4-yl)pyrimidin-4-yl)-1′,2′-dihydrospiro[cyclopropane-1,3′-pyrrolo[3,2-c]pyridin]-6′-yl)acetamide] | 100 to 1000 nM |
| CC(=O)Nc1cc2c(cn1)C1(CC1)CN2c1cc(C)nc(-n2nc(C)cc2C)n1 [Example 110, N-(1′-(2-(3,5-dimethyl-1H-pyrazol-1-yl)-6-methylpyrimidin-4-yl)-1′,2′-dihydrospiro[cyclopropane-1,3′-pyrrolo[3,2-c]pyridin]-6′-yl)acetamide] | ≥ 1000 nM |
| CC(=O)Nc1cc2c(cn1)C1(CC1)CN2c1cc(C)nc(-c2cccc(F)c2)n1 [Example 111, N-(1′-(2-(3-fluorophenyl)-6-methylpyrimidin-4-yl)-1′,2′-dihydrospiro[cyclopropane-1,3′-pyrrolo[3,2-c]pyridin]-6′-yl)acetamide] | ≥ 1000 nM |
| CC(=O)Nc1cc2c(cn1)C1(CC1)CN2c1cc(C)nc(-c2ccccn2)n1 [Example 112, N-(1′-(6-methyl-2-(pyridin-2-yl)pyrimidin-4-yl)-1′,2′-dihydrospiro[cyclopropane-1,3′-pyrrolo[3,2-c]pyridin]-6′-yl)acetamide] | ≥ 1000 nM |
| CC(=O)Nc1cc2c(cn1)C1(CC1)CN2c1cc(C)nc(N(C)C(C)C)n1 [Example 115, N-(1′-(2-(isopropyl(methyl)amino)-6-methylpyrimidin-4-yl)-1′,2′-dihydrospiro[cyclopropane-1,3′-pyrrolo[3,2-c]pyridin]-6′-yl)acetamide] | ≥ 1000 nM |
| CC(=O)Nc1cc2c(cn1)C1(CC1)CN2c1cc(C)nc(C2CC2(C)C)n1 (centres unmarked) [Example 124, N-(1′-(2-(2,2-dimethylcyclopropyl)-6-methylpyrimidin-4-yl)-1′,2′-dihydrospiro[cyclopropane-1,3′-pyrrolo[3,2-c]pyridin]-6′-yl)acetamide] | 10 to 100 nM |
| CC(=O)Nc1cc2c(cn1)C1(CC1)CN2c1cc(OCC2(C)COC2)nc(C(C)(F)F)n1 [Example 139, N-(1′-(2-(1,1-difluoroethyl)-6-((3-methyloxetan-3-yl)methoxy)pyrimidin-4-yl)-1′,2′-dihydrospiro[cyclopropane-1,3′-pyrrolo[3,2-c]pyridin]-6′-yl)acetamide trifluoroacetate] | ≥ 1000 nM |
| CC(=O)Nc1cc2c(cn1)C1(CC1)CN2c1cc(Oc2cnccn2)nc(C(C)(F)F)n1 [Example 146, N-(1′-(2-(1,1-difluoroethyl)-6-(pyrazin-2-yloxy)pyrimidin-4-yl)-1′,2′-dihydrospiro[cyclopropane-1,3′-pyrrolo[3,2-c]pyridin]-6′-yl)acetamide] | ≥ 1000 nM |

biological target: T1, JH2 domain of human Tyk2 (Homo sapiens, UniProt P29597); test: JH2 biochemical assay (TR-FRET probe displacement); format: binding; details: JH2 biochemical assay
T1 construct: 10×His-tagged TYK2 JH2 domain (amino acid 575-876)
T1 sequence (P29597 575-876): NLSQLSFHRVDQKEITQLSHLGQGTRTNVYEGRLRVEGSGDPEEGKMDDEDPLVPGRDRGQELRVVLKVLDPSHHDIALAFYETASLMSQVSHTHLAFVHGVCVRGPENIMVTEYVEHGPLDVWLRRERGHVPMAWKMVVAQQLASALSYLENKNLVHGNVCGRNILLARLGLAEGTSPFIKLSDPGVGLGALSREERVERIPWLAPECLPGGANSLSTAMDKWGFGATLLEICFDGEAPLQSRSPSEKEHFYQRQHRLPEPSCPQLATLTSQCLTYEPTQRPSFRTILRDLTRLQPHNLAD
Experimental: The inhibitory potency of compounds of the disclosure against the kinase activity of recombinantly generated JH2 domain of human Tyk2 was evaluated in a plate-based assay using a TR-FRET assay platform. Briefly, 2 nM of recombinant JH2 domain [10×His-tagged TYK2 JH2 domain (amino acid 575-876)] was combined with 2 nM probe ((S)-6-amino-9-(2-carboxy-4-((1-(3-(8-methyl-5-(methylamino)-8H-imidazo[4,5-d]thiazolo[5,4-b]pyridin-2-yl)phenyl)ethyl)carbamoyl)phenyl)-3-iminio-5-sulfo-3H-xanthene-4-sulfonate), 0.1 nM Tb-labeled anti-His antibody, and compounds of disclosure for 60 minutes. Compounds are tested at either […] top concentration, 10 points of 3-fold dilution. The TR-FRET signal […] by compounds and signal was calculated by taking the ratio of fluorescence at 520 nm and 495 nm. The data was normalized and the percent activity versus log concentration of compound was fitted with a 4-parameter logistic model to generate IC50 curves.

| Structure (SMILES) | IC50 |
| --- | --- |
| CC(=O)Nc1cc2c(cn1)C1(CC1)CN2c1cc(C)cc(-c2cnn(C)c2C(F)F)n1 [Example 262, N-(1′-(6-(5-(difluoromethyl)-1-methyl-1H-pyrazol-4-yl)-4-methylpyridin-2-yl)-1′,2′-dihydrospiro[cyclopropane-1,3′-pyrrolo[3,2-c]pyridin]-6′-yl)acetamide trifluoroacetate] | 10 to 100 nM |
| CC(=O)Nc1cc2c(cn1)C1(CC1)CN2c1cc(C)cc(-c2cnn(C3COC3)c2)n1 [Example 265, N-(1′-(4-methyl-6-(1-(oxetan-3-yl)-1H-pyrazol-4-yl)pyridin-2-yl)-1′,2′-dihydrospiro[cyclopropane-1,3′-pyrrolo[3,2-c]pyridin]-6′-yl)acetamide trifluoroacetate] | 10 to 100 nM |
| CC(=O)Nc1cc2c(cn1)C1(CC1)CN2c1cc(C)cc(-c2cnn(CC3CC3)c2)n1 [Example 266, N-(1′-(6-(1-(cyclopropylmethyl)-1H-pyrazol-4-yl)-4-methylpyridin-2-yl)-1′,2′-dihydrospiro[cyclopropane-1,3′-pyrrolo[3,2-c]pyridin]-6′-yl)acetamide trifluoroacetate] | 10 to 100 nM |
| COc1ccc(-c2cc(C)cc(N3CC4(CC4)c4cnc(NC(C)=O)cc43)n2)cn1 [Example 267, N-(1′-(6′-methoxy-4-methyl-[2,3′-bipyridin]-6-yl)-1′,2′-dihydrospiro[cyclopropane-1,3′-pyrrolo[3,2-c]pyridin]-6′-yl)acetamide trifluoroacetate] | 100 to 1000 nM |
| CC(=O)Nc1cc2c(cn1)C1(CC1)CN2c1cc(C)cc(-c2cnn(C3CNC3)c2)n1 [Example 268, N-(1′-(6-(1-(azetidin-3-yl)-1H-pyrazol-4-yl)-4-methylpyridin-2-yl)-1′,2′-dihydrospiro[cyclopropane-1,3′-pyrrolo[3,2-c]pyridin]-6′-yl)acetamide trifluoroacetate] | 100 to 1000 nM |
| CC(=O)Nc1cc2c(cn1)C1(CC1)CN2c1cc(C)nc(-c2cnn(C3CNC3)c2)n1 [Example 269, N-(1′-(2-(1-(azetidin-3-yl)-1H-pyrazol-4-yl)-6-methylpyrimidin-4-yl)-1′,2′-dihydrospiro[cyclopropane-1,3′-pyrrolo[3,2-c]pyridin]-6′-yl)acetamide trifluoroacetate] | 100 to 1000 nM |
| CC(=O)Nc1cc2c(cn1)C1(CCNCC1)CN2c1nccc(C(C)(F)F)n1 [Example 270, N-(1′-(4-(1,1-difluoroethyl)pyrimidin-2-yl)-1′,2′-dihydrospiro[piperidine-4,3′-pyrrolo[3,2-c]pyridin]-6′-yl)acetamide] | ≥ 1000 nM |
| CC(=O)Nc1cc2c(cn1)C1(CCNCC1)CN2c1ccnc(C(C)(F)F)n1 [Example 271, N-(1′-(2-(1,1-difluoroethyl)pyrimidin-4-yl)-1′,2′-dihydrospiro[piperidine-4,3′-pyrrolo[3,2-c]pyridin]-6′-yl)acetamide] | ≥ 1000 nM |
| CC(=O)Nc1cc2c(cn1)C1(CCNCC1)CN2c1cccc(C(C)(F)F)n1 [Example 272, N-(1′-(6-(1,1-difluoroethyl)pyridin-2-yl)-1′,2′-dihydrospiro[piperidine-4,3′-pyrrolo[3,2-c]pyridin]-6′-yl)acetamide] | ≥ 1000 nM |
| CC(=O)Nc1cc2c(cn1)C1(CC1)CN2c1cc(C)nc(OCC(F)(F)F)n1 [Example 361, N-(1′-(6-methyl-2-(2,2,2-trifluoroethoxy)pyrimidin-4-yl)-1′,2′-dihydrospiro[cyclopropane-1,3′-pyrrolo[3,2-c]pyridin]-6′-yl)acetamide trifluoroacetate] | 10 to 100 nM |

same assay, conditions: TR-FRET probe displacement, JH2 domain of human Tyk2

| Structure (SMILES) | IC50 |
| --- | --- |
| CC(=O)Nc1cc2c(cn1)C1(CC1)CN2c1cc(C)nc(OCC2CCO2)n1 (centres unmarked) [Example 380, N-(1′-(6-methyl-2-(oxetan-2-ylmethoxy)pyrimidin-4-yl)-1′,2′-dihydrospiro[cyclopropane-1,3′-pyrrolo[3,2-c]pyridin]-6′-yl)acetamide trifluoroacetate] | 10 to 100 nM |
| CC(=O)Nc1cc2c(cn1)C1(CC1)CN2c1cc(-c2cnn(CC#N)c2)nc(C(C)(F)F)n1 [Example 393, N-(1′-(6-(1-(cyanomethyl)-1H-pyrazol-4-yl)-2-(1,1-difluoroethyl)pyrimidin-4-yl)-1′,2′-dihydrospiro[cyclopropane-1,3′-pyrrolo[3,2-c]pyridin]-6′-yl)acetamide] | ≤ 10 nM |
